The NIST ThermoML archive (doi:10.1007/s10765-006-0095-5)
± gives the expanded uncertainty stated by the source.

Assays:
[1] = 101 kPa, Liquid
[2] = refractive index (Na D-line) (dimensionless); conditions: 101.33 kPa, Liquid
[3] = xn = mol fraction of the nth substance listed; conditions: 101 kPa, Liquid, x1 = 1

## c1ccccc1 [benzene]
[1]; 298.15 K
  mass density: 873.6 ± 2.5 kg/m3
[1]; 303.15 K
  mass density: 870.8 ± 2.6 kg/m3
[1]; 308.15 K
  mass density: 865.7 ± 2.7 kg/m3
[1]; 313.15 K
  mass density: 861 ± 2.9 kg/m3
[1]; 318.15 K
  mass density: 856.3 ± 3 kg/m3
[2]; 298.15 K
  refractive index: 1.4979 ± 0.0019
[2]; 303.15 K
  refractive index: 1.4962 ± 0.0019
[2]; 308.15 K
  refractive index: 1.4944 ± 0.0019
[2]; 313.15 K
  refractive index: 1.4929 ± 0.0019
[2]; 318.15 K
  refractive index: 1.4911 ± 0.0019

## c1ccccc1 [benzene] + CCCCN(CCCC)CCCC
[3]; 298.15 K
  mass density: 873.6 ± 2.5 kg/m3
[3]; 303.15 K
  mass density: 870.8 ± 2.6 kg/m3
[3]; 308.15 K
  mass density: 865.7 ± 2.7 kg/m3
[3]; 313.15 K
  mass density: 861 ± 2.9 kg/m3
[3]; 318.15 K
  mass density: 856.3 ± 3 kg/m3

## c1ccccc1 [benzene] + CCN(CC)CC
[3]; 298.15 K
  mass density: 873.6 ± 2.5 kg/m3
[3]; 303.15 K
  mass density: 870.8 ± 2.6 kg/m3
[3]; 308.15 K
  mass density: 865.7 ± 2.7 kg/m3
[3]; 313.15 K
  mass density: 861 ± 2.9 kg/m3
[3]; 318.15 K
  mass density: 856.3 ± 3 kg/m3

## CCCCN(CCCC)CCCC [tributylamine]
[1]; 298.15 K
  mass density: 774.3 ± 2.1 kg/m3
[1]; 303.15 K
  mass density: 770.8 ± 2.3 kg/m3
[1]; 308.15 K
  mass density: 767.2 ± 2.4 kg/m3
[1]; 313.15 K
  mass density: 763.6 ± 2.5 kg/m3
[1]; 318.15 K
  mass density: 759.8 ± 2.6 kg/m3
[2]; 298.15 K
  refractive index: 1.4274 ± 0.0019
[2]; 303.15 K
  refractive index: 1.4259 ± 0.0019
[2]; 308.15 K
  refractive index: 1.4231 ± 0.0019
[2]; 313.15 K
  refractive index: 1.421 ± 0.0019
[2]; 318.15 K
  refractive index: 1.4188 ± 0.0019

## CCN(CC)CC [triethylamine]
[1]; 298.15 K
  mass density: 723.4 ± 1.9 kg/m3
[1]; 303.15 K
  mass density: 717.9 ± 2.1 kg/m3
[1]; 308.15 K
  mass density: 712.9 ± 2.2 kg/m3
[1]; 313.15 K
  mass density: 708.3 ± 2.3 kg/m3
[1]; 318.15 K
  mass density: 701.6 ± 2.4 kg/m3
[2]; 298.15 K
  refractive index: 1.4011 ± 0.0019
[2]; 303.15 K
  refractive index: 1.3983 ± 0.0019
[2]; 308.15 K
  refractive index: 1.395 ± 0.0019
[2]; 313.15 K
  refractive index: 1.3928 ± 0.0019
[2]; 318.15 K
  refractive index: 1.3898 ± 0.0019
